Reference: ChEMBL document CHEMBL1201862, “PubChem BioAssay data set” (2004)
Activity calls are given as the source filed them.

Tests used:
Hexokinase-1 = target: T1, Hexokinase-1 (Homo sapiens, UniProt P19367); assay: HK1 enzyme activation by HKDC1 hits – biochemical, selectivity assay for HKDC1 activator project, dose response (AID 504762); assay type: functional
T1 sequence (P19367 whole entry): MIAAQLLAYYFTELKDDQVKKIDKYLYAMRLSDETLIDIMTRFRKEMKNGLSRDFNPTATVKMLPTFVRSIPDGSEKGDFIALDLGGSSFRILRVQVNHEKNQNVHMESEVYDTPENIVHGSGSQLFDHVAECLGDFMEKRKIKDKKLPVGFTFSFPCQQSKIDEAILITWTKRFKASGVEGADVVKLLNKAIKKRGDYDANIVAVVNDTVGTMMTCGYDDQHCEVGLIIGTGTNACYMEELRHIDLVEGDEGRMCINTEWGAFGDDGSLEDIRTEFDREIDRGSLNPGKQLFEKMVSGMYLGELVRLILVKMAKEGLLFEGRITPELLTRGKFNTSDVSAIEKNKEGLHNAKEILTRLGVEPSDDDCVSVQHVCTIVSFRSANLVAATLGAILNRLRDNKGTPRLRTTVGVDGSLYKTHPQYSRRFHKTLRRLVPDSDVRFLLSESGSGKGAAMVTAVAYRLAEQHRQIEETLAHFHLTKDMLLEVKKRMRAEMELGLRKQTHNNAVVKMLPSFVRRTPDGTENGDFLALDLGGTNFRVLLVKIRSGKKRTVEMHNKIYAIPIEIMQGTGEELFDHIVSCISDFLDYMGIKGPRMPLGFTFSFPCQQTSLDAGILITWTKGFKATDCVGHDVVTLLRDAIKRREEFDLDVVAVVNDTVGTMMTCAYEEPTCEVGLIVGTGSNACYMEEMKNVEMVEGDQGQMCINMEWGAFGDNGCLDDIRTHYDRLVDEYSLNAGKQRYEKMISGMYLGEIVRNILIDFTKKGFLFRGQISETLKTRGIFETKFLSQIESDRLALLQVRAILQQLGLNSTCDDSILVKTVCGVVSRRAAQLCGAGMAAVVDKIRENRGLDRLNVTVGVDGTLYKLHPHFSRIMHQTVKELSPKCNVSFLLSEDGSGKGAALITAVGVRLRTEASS

Hexokinase HKDC1 = target: T2, Hexokinase HKDC1 (Homo sapiens, UniProt Q2TB90); assay: activation of HKDC1 glucose phosphorylation – biochemical, W721R variant, dose response (AID 504730); assay type: functional
T2 sequence (Q2TB90 whole entry): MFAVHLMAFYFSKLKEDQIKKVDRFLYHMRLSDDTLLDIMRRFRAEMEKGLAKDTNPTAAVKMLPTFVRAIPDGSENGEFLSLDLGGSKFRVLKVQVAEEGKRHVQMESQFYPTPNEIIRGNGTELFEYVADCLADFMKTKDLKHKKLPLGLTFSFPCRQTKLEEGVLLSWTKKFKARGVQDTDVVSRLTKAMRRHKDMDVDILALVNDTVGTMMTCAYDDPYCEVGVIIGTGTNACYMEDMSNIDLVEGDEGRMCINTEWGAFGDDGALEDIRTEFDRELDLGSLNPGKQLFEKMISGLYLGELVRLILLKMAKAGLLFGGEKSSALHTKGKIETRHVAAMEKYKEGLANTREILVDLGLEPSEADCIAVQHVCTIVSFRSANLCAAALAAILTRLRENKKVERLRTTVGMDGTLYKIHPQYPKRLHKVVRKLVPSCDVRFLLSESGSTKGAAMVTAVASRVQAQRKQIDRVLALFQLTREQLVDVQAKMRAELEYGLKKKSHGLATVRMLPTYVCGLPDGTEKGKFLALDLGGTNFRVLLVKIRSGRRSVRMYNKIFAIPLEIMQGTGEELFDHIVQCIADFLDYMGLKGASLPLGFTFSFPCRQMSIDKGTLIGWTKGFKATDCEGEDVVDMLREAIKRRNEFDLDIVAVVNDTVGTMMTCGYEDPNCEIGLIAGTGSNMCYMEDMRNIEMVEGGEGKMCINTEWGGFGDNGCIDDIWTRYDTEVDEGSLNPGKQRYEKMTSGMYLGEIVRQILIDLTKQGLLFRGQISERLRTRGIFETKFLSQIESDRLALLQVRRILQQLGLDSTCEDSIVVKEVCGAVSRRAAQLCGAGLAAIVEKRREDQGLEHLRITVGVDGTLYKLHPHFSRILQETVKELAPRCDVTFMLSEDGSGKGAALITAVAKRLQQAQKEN

[1] = viability of PTEN-deleted HCT116 cells – cell-based, HCT116 PTEN knockout, dose response (AID 1047); assay type: functional;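 also: HCT116 colon tumor cells with PTEN knocked out; cells exposed to compound for 60 hours before readout; potency for loss of cell viability measured by luminescence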
[2] = viability of HCT116 lacking mutant beta-catenin – cell-based, human colon tumor, dose response (AID 1045); assay type: functional;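 also: HCT116 colon tumor cells with beta catenin knocked out; cells exposed to compound for 60 hours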
[3] = tested on: Streptococcus sp. 'group A'; assay: Streptococcus pyogenes SK(-)GAS viability under kanamycin – luminescence, BacTiterGlo, confirmation, counter-screen for streptokinase expression inhibitor project, dose response (AID 1900); assay type: functional, organism-based
Streptococcus = assay: GAS UMAA2166 growth inhibition – luminescence, BacTiterGlo, counter-screen for streptokinase expression inhibitor project, dose response (AID 1915); assay type: functional, organism-based;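 also: potency for reduction of bacterial viability or growth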
Streptokinase A = target: T3, Streptokinase A (Streptococcus pyogenes serotype M1, UniProt P10520); assay: viability-normalized secreted streptokinase activity reduction – plasminogen activation absorbance, OD405, dose response (AID 1914); assay type: functional, Streptococcus pyogenes M1 GAS;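 also: secreted streptokinase activity via plasminogen activation per viability signal from cell pellet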
T3 sequence (P10520 whole entry): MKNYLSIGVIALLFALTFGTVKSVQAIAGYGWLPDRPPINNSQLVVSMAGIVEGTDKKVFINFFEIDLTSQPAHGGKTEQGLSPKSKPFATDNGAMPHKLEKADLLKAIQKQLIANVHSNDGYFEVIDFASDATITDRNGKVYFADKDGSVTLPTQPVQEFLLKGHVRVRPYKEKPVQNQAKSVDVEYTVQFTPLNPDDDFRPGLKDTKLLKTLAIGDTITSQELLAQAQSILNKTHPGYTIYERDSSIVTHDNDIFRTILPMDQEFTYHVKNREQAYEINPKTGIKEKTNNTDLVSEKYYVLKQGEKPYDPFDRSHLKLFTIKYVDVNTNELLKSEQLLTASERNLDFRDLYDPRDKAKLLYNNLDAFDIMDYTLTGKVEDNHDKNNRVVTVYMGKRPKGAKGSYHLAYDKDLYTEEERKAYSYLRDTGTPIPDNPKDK

[4] = target: Sphingosine 1-phosphate receptor 4 (Homo sapiens, UniProt O95977); assay: Fluorescence dose response cell-based high throughput screening assay for agonists of the Sphingosine 1-Phosphate Receptor 4 (S1P4). [Related pubchem assays: 1509 (Primary screen.), 1523 (Confirmation screen in triplicates.)]; assay type: functional
Sequence of Sphingosine 1-phosphate receptor 4 (O95977 whole entry): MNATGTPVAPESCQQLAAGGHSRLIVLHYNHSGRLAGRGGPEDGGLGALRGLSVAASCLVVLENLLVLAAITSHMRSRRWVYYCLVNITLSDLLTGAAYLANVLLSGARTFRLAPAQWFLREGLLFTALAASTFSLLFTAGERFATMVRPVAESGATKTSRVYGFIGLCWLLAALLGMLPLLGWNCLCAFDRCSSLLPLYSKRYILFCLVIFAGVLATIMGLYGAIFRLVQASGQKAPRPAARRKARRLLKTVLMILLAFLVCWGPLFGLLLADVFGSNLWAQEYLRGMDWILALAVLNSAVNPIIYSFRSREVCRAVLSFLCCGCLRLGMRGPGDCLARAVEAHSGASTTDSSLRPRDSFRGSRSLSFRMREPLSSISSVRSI

[5] = target: Sphingosine 1-phosphate receptor 1 (Homo sapiens, UniProt P21453); assay: Fluorescence-based counterscreen assay for S1P4 agonists: Cell-based dose response high throughput screening assay to identify agonists of the Sphingosine 1-Phosphate Receptor 1 (S1P1). [Related pubchem assays (depositor defined):AID1509, AID1523, AID1801, AID463107, AID463118, AID463119, AID463122, AID463123, AID463129, AID463225, AID504400, AID504460]; assay type: functional
Sequence of Sphingosine 1-phosphate receptor 1 (P21453 whole entry): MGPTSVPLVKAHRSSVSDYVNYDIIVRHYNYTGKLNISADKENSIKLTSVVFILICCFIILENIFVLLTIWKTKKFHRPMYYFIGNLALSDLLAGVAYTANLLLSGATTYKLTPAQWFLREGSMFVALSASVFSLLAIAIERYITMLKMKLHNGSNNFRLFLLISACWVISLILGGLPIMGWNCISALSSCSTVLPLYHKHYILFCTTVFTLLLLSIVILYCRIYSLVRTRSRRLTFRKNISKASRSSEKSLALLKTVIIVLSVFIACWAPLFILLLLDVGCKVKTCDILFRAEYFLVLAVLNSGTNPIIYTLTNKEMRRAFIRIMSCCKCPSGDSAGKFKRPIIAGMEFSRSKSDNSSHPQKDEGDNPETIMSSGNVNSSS

Cannabinoid receptor 1 [6] = target: T4, Cannabinoid receptor 1 (Homo sapiens, UniProt P21554); assay: SAR analysis of agonists of the Cannabinoid Receptor 1 using an Image-Based Assay - Set 2. [Related pubchem assays (depositor defined):AID2013, AID2026]; assay type: functional
T4 sequence (P21554 whole entry): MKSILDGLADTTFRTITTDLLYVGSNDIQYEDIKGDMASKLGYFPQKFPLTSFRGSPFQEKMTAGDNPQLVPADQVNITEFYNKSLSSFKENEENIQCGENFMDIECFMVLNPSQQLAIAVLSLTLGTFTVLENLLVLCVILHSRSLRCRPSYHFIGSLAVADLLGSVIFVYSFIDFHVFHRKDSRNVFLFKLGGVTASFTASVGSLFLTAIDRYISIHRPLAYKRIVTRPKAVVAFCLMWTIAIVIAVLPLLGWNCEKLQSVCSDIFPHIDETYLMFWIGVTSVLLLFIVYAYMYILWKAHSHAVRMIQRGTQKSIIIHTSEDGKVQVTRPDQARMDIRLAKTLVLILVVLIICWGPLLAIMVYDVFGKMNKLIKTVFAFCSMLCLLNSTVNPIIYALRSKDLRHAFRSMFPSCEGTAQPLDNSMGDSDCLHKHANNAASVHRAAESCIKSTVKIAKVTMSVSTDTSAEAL

Protein RecA = target: T5, Protein RecA (Mycobacterium tuberculosis, UniProt P9WHJ3); assay: Fluorescence Cell-Free Homogeneous Dose Retest to Identify Inhibitors of RecA-Intein Splicing Activity. [Related pubchem assays (depositor defined):AID2097, AID2223, AID489010, AID492950]; assay type: functional
T5 sequence (P9WHJ3 whole entry): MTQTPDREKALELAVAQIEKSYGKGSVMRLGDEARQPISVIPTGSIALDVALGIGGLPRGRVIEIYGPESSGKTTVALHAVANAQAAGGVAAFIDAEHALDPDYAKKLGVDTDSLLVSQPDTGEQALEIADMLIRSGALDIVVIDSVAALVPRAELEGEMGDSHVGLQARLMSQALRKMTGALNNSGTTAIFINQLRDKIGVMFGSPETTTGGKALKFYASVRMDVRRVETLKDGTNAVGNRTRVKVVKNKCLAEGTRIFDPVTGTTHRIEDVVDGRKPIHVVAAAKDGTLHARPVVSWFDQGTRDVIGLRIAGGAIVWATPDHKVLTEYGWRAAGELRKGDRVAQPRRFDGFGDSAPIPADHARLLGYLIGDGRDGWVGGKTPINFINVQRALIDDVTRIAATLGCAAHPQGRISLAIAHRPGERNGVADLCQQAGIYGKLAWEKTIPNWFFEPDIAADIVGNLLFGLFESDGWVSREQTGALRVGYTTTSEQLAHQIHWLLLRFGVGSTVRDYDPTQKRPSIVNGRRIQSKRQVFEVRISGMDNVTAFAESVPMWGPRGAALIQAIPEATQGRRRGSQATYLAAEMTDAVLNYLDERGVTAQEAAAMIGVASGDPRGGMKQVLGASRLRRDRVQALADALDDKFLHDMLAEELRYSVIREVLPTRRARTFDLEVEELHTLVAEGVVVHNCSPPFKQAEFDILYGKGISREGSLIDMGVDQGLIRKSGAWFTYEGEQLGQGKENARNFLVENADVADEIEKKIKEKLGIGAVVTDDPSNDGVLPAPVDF

[7] = target: G-protein coupled receptor 55 (Homo sapiens, UniProt Q9Y2T6); assay: inhibition of LPI-stimulated GPR55 beta-arrestin translocation – imaging, U2OS, beta-arrestin-GFP, LPI agonist, primary screen (AID 2013); assay type: functional;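 also: antagonist potency measured as reduced agonist-driven arrestin aggregation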
Sequence of G-protein coupled receptor 55 (Q9Y2T6 whole entry): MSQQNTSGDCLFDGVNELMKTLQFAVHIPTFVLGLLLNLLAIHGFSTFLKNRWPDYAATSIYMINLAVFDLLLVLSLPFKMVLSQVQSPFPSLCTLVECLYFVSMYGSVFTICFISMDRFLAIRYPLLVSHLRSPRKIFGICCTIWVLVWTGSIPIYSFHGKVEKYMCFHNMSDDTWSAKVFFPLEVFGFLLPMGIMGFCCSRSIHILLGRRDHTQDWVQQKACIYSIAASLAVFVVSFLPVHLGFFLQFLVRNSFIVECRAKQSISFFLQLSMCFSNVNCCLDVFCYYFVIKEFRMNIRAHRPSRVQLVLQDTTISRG

[8] = target: T6, G-protein coupled receptor 35 (Homo sapiens, UniProt Q9HC97); assay: SAR analysis of Agonists of the GPR35 Receptor using an Image-Based Assay - Set 2. [Related pubchem assays (depositor defined):AID2013, AID2026]; assay type: functional
T6 sequence (Q9HC97 whole entry): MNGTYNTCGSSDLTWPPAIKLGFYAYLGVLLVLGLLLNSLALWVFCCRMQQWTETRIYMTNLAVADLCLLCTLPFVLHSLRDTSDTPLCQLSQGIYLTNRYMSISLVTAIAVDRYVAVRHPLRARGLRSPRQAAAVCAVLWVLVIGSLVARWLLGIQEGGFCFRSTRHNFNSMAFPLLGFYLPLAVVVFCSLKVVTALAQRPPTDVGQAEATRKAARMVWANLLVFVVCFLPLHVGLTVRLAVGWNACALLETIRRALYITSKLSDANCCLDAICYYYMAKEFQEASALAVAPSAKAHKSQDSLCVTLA

Cannabinoid receptor 2 [9] = target: T7, Cannabinoid receptor 2 (Homo sapiens, UniProt P34972); assay: SAR analysis of agonists of the Cannabinoid Receptor 2 using an Image-Based Assay. [Related pubchem assays (depositor defined):AID2013, AID2026]; assay type: functional
T7 sequence (P34972 whole entry): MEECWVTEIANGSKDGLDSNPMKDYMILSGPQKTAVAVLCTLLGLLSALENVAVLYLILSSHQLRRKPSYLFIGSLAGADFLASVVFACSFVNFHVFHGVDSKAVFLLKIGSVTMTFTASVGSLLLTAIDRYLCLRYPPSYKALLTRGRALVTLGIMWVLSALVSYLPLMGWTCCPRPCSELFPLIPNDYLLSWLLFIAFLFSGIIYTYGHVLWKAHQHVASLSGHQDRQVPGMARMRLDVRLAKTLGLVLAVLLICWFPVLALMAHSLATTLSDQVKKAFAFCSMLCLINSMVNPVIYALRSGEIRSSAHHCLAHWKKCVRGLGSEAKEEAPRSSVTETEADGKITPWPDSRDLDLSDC

Cannabinoid receptor 1 [10] = target: T4, Cannabinoid receptor 1; assay: SAR analysis of antagonists of the Cannabinoid Receptor 1 using an Image-Based Assay - Set 2. [Related pubchem assays (depositor defined):AID2013, AID2026]; assay type: functional
Cannabinoid receptor 2 [11] = target: T7, Cannabinoid receptor 2; assay: SAR analysis of antagonists of the Cannabinoid Receptor 2 using an Image-Based Assay. [Related pubchem assays (depositor defined):AID2013, AID2026]; assay type: functional
[12] = target: T8, Replicative DNA helicase DnaB (Mycobacterium tuberculosis, UniProt P9WMR3); assay: DnaB intein splicing inhibitors, dose response, biochemical, cell-free fluorescence (AID 449749); assay type: functional
T8 sequence (P9WMR3 whole entry): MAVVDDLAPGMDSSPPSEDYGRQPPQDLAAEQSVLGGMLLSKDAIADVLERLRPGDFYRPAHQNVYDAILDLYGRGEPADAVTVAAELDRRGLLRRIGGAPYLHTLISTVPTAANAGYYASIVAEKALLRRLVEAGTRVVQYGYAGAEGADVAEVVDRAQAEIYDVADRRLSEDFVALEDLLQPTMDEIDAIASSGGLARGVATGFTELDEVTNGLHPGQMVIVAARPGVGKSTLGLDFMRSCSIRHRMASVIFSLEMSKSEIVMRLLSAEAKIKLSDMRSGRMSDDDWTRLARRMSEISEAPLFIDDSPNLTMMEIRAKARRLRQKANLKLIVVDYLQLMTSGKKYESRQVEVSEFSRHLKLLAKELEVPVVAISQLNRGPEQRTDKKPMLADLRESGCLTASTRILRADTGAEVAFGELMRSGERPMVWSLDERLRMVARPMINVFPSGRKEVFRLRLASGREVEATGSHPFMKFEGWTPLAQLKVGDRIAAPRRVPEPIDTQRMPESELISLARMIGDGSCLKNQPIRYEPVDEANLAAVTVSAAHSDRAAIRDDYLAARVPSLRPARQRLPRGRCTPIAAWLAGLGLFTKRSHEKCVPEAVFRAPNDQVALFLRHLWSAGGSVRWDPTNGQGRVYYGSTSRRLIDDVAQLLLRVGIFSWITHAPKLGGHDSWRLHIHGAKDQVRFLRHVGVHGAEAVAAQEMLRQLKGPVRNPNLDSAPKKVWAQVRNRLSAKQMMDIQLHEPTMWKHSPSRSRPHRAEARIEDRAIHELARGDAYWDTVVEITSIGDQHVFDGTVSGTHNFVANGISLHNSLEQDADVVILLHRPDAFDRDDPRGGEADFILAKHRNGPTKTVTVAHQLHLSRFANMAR

[13] = target: T6, G-protein coupled receptor 35; assay: SAR analysis of Antagonists of the GPR35 Receptor using an Image-Based Assay - Set 3. [Related pubchem assays (depositor defined):AID2013, AID2026]; assay type: functional

Cn1cnnc1SC1c2cccc3cccc(c23)C1NS(=O)(=O)c1ccccc1 (configuration not stated)
EC50 (Hexokinase-1): 24.7 µM (inactive)
EC50 (Hexokinase HKDC1): 46.7 µM (inactive)

Fc1ccc(NC2=NN=C(c3cc(F)ccc3F)CS2)cc1
EC50 [1]: 18.5 µM (active)
EC50 (Hexokinase-1): 28.9 µM (inactive)
EC50 [2]: 20.1 µM (active)
EC50 (Hexokinase HKDC1): 35.7 µM (inactive)

CC(C)C[C@H](NC(=O)c1[nH]cnc1C(=O)NCc1ccccc1)C(=O)OCc1ccccc1
EC50 [3]: 3.55 µM (active)
EC50 (Streptococcus): 20.5 µM (active)
EC50 (Streptokinase A): > 150 µM (not active)
EC50 [4]: 14.4 µM (not active)
EC50 [5]: > 49.8 µM (inactive)

O=C(c1ccco1)N1CCN(c2nc(C3CC3)nc3sc4c(c23)CCCC4)CC1
EC50 (Cannabinoid receptor 1 [6]): > 32 µM (inactive)
EC50 (Protein RecA): 29.6 µM (active)
IC50 [7]: 1.74 µM (active)
EC50 [8]: > 32 µM (inactive)
EC50 (Cannabinoid receptor 2 [9]): > 32 µM (inactive)
IC50 (Cannabinoid receptor 1 [10]): > 32 µM (inactive)
IC50 (Cannabinoid receptor 2 [11]): > 32 µM (inactive)
AC50 [12]: 2.35 µM (active)
IC50 [13]: > 32 µM (inactive)

COc1ccc(C2CC(c3cccs3)=NN2c2ccccc2)cc1 (configuration not stated)
EC50 [4]: 12.3 µM (not active)
EC50 [5]: 5.45 µM (active)
